# Reference: ChEMBL document CHEMBL4665665, “4-Aryl Pyrrolidines as Novel Orally Efficacious Antimalarial Agents. Part 2: 2-Aryl-N-(4-arylpyrrolidin-3-yl)acetamides” (ACS Med Chem Lett, 2019)
# Calls of active or inactive are those of the source. The calls are words filed in the database; no cut-off is given here.
# Columns and labels:
# [1] = target: Cytochrome P450 3A4 (Homo sapiens, UniProt P08684); test: Inhibition of recombinant human CYP3A4 expressed in baculovirus infected insect cells using midazolam as substrate incubated for 30 mins in presence of NADPH-regenerating system by fluorescence based assay; assay type: ADME
# Sequence of Cytochrome P450 3A4 (P08684 whole entry): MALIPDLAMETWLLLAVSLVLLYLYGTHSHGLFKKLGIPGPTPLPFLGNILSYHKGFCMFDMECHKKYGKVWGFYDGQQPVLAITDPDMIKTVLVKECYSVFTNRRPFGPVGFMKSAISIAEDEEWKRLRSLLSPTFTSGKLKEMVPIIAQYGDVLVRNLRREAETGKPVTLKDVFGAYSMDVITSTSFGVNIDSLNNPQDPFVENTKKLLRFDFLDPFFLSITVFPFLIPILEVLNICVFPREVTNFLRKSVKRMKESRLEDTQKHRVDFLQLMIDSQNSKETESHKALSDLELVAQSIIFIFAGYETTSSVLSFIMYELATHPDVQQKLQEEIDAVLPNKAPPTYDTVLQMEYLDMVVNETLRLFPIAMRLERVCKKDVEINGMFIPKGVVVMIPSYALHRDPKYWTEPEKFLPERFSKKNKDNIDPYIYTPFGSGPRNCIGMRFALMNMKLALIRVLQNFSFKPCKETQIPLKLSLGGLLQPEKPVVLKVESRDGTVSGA
# [2] = test system: Plasmodium chabaudi; test: Antimalarial activity against Plasmodium chabaudi ASS infected in NIH mouse assessed as inhibition of parasitemia at 3 mg/kg, po qd for 4 days starting from 4 hrs post-parasite inoculation and measured at 24 hrs after last-drug treatment by Peter's 4-day suppressive test relative to control; assay type: functional; details: 96 h
# [3] = Apparent clearance in KM mouse at 2 mg/kg, iv administered as cassette dosing measured up to 24 hrs by LC/MS analysis; assay type: ADME, organism-based; details: in vivo
# [4] = test system: Plasmodium chabaudi; test: Antimalarial activity against Plasmodium chabaudi ASS infected po dosed NIH mouse assessed as inhibition of parasitemia administered oce daily for 4 days starting from 4 hrs post parasite-inoculation and measured at 24 hrs post-last treatment by Peter's 4-day suppressive test; assay type: functional; details: 96 h
# [5] = test system: Plasmodium falciparum; test: Antimalarial activity against multidrug resistant Plasmodium falciparum Dd2 incubated for 72 hrs by SYBR Green-1 dye based fluorescence assay; assay type: functional, organism-based; details: Dd2, 72 h
# [6] = Plasma concentration in NIH mouse infected with Plasmodium chabaudi ASS at 3 mg/kg, po qd for 4 days starting from 4 hrs post-parasite inoculation and measured at 1 hr post-dosing on day 4 by LC/MS analysis; assay type: ADME, organism-based; details: dose 3 mg/kg/day, time 4 day
# [7] = test system: HepG2; test: Cytotoxicity against human HepG2 cells assessed as cell viability at 5 uM incubated for 72 hrs by PrestoBlue cell viability reagent based assay; details: hepg2, 72 h
# [8] = Plasma concentration in NIH mouse infected with Plasmodium chabaudi ASS at 10 mg/kg, po qd for 4 days starting from 4 hrs post-parasite inoculation and measured at 1 hr post-dosing on day 4 by LC/MS analysis; assay type: ADME, organism-based; details: dose 10 mg/kg/day, time 4 day
# [9] = Plasma concentration in NIH mouse infected with Plasmodium chabaudi ASS at 30 mg/kg, po qd for 4 days starting from 4 hrs post-parasite inoculation and measured at 6 hrs post-dosing on day 4 by LC/MS analysis; assay type: ADME, organism-based; details: dose 30 mg/kg/day, time 4 day
# [10] = Apparent volume of distribution in KM mouse at 2 mg/kg, iv administered as cassette dosing measured up to 24 hrs by LC/MS analysis; assay type: ADME, organism-based; details: in vivo, read-out: Vz
# [11] = Plasma concentration in NIH mouse infected with Plasmodium chabaudi ASS at 3 mg/kg, po qd for 4 days starting from 4 hrs post-parasite inoculation and measured at 24 hrs post-dosing on day 4 by LC/MS analysis; assay type: ADME, organism-based; details: dose 3 mg/kg/day, time 4 day
# [12] = target: Plasmepsin II (Plasmodium falciparum) (UniProt P46925); test: Inhibition of Plasmodium falciparum plasmepsin 2 using PM-2 peptide substrate incubated for 60 mis by fluorescence based assay; details: time 60.0 min
# Sequence of Plasmepsin II (Plasmodium falciparum) (P46925 125-453 limits assumed): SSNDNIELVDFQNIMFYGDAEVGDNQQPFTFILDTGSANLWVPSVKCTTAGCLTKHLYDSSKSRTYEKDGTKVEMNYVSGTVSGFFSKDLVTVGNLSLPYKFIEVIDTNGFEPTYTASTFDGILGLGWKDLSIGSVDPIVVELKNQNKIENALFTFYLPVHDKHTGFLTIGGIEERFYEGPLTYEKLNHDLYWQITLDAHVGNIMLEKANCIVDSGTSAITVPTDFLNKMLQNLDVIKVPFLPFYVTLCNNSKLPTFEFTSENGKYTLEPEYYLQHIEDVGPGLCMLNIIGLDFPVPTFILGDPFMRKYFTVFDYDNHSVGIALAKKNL
# [13] = test system: Plasmodium falciparum; test: Antimalarial activity against CQ-sensitive Plasmodium falciparum 3D7 incubated for 72 hrs by SYBR Green-1 dye based fluorescence assay; assay type: functional, organism-based; details: Plasmodium falciparum, 3D7, 72 h
# [14] = Half life in KM mouse at 2 mg/kg, iv administered as cassette dosing measured up to 24 hrs by LC/MS analysis; assay type: ADME, organism-based; details: in vivo
# [15] = test system: Plasmodium chabaudi; test: Antimalarial activity against Plasmodium chabaudi ASS infected in NIH mouse assessed as inhibition of parasitemia at 10 mg/kg, po qd for 4 days starting from 4 hrs post-parasite inoculation and measured at 24 hrs after last-drug treatment by Peter's 4-day suppressive test relative to control; assay type: functional; details: 96 h
# [16] = test system: Plasmodium chabaudi; test: Antimalarial activity against Plasmodium chabaudi ASS infected in NIH mouse assessed as inhibition of parasitemia at 30 mg/kg, po qd for 4 days starting from 4 hrs post-parasite inoculation and measured at 24 hrs after last-drug treatment by Peter's 4-day suppressive test relative to control; assay type: functional; details: 96 h
# [17] = target: Beta-secretase 1 (Homo sapiens) (UniProt P56817); test: Inhibition of recombinant human BACE1 using Mca-SEVNLDAEFRK(Dnp)RR-NH2 fluorogenic peptide as substrate incubated for 60 mis by fluorescence based assay; details: time 60.0 min
# Sequence of Beta-secretase 1 (Homo sapiens) (P56817 whole entry): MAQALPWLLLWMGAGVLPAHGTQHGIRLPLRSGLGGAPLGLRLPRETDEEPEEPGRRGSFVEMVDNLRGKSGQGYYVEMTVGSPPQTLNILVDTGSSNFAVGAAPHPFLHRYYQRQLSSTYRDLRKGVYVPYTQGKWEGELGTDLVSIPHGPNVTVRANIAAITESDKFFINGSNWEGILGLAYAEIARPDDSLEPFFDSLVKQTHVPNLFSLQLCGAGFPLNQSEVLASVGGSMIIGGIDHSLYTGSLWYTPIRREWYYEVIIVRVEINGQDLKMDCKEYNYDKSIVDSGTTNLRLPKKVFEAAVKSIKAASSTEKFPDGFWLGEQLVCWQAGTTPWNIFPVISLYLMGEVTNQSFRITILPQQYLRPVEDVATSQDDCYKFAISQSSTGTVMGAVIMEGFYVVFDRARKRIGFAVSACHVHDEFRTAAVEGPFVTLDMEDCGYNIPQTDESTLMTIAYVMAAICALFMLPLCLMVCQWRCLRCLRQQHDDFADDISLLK
# [18] = Plasma concentration in NIH mouse infected with Plasmodium chabaudi ASS at 3 mg/kg, po qd for 4 days starting from 4 hrs post-parasite inoculation and measured at 6 hrs post-dosing on day 4 by LC/MS analysis; assay type: ADME, organism-based; details: dose 3 mg/kg/day, time 4 day
# [19] = Plasma concentration in NIH mouse infected with Plasmodium chabaudi ASS at 30 mg/kg, po qd for 4 days starting from 4 hrs post-parasite inoculation and measured at 24 hrs post-dosing on day 4 by LC/MS analysis; assay type: ADME, organism-based; details: dose 30 mg/kg/day, time 4 day
# [20] = test system: Plasmodium falciparum; test: Inhibition of Plasmodium falciparum plasmepsin 4 using PM-2 peptide substrate incubated for 60 mis by fluorescence based assay; details: time 60.0 min
# [21] = target: Cytochrome P450 2C19 (Homo sapiens, UniProt P33261); test: Inhibition of recombinant human CYP2C19 expressed in baculovirus infected insect cells using s-mephenytoin as substrate incubated for 30 mins in presence of NADPH-regenerating system by fluorescence based assay; assay type: ADME
# Sequence of Cytochrome P450 2C19 (P33261 whole entry): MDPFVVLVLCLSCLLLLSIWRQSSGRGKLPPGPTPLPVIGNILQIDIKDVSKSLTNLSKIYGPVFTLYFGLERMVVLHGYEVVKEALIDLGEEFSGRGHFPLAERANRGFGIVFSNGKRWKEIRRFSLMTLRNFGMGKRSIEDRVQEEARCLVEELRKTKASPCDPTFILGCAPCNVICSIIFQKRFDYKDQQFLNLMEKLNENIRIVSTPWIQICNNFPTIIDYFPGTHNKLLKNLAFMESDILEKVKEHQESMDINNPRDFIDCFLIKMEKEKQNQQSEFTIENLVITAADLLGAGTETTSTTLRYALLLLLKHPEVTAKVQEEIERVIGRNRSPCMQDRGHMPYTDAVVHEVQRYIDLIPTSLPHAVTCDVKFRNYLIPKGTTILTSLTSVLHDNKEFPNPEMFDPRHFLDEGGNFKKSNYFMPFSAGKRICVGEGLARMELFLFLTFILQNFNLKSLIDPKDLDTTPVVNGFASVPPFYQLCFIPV
# [22] = Plasma concentration in NIH mouse infected with Plasmodium chabaudi ASS at 10 mg/kg, po qd for 4 days starting from 4 hrs post-parasite inoculation and measured at 6 hrs post-dosing on day 4 by LC/MS analysis; assay type: ADME, organism-based; details: dose 10 mg/kg/day, time 4 day
# [23] = target: T1, Cytochrome P450 1A2 (Homo sapiens, UniProt P05177); test: Inhibition of recombinant human CYP1A2 expressed in baculovirus infected insect cells using phenacetin as substrate incubated for 30 mins in presence of NADPH-regenerating system by fluorescence based assay; assay type: ADME
# T1 sequence (P05177 whole entry): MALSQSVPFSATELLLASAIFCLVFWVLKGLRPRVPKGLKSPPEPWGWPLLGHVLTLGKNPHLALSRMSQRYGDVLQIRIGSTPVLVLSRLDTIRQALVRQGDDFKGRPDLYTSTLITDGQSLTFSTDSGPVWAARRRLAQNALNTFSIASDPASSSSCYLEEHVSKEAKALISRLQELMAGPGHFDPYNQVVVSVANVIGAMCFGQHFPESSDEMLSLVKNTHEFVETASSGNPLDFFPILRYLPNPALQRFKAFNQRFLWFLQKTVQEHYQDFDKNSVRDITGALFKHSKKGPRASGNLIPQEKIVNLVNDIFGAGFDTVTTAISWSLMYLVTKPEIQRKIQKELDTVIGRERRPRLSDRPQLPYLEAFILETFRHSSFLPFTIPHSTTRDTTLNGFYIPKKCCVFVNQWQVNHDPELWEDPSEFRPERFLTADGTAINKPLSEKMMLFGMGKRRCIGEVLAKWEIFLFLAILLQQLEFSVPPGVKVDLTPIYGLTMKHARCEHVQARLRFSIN
# [24] = test system: HepG2; test: Cytotoxicity against human HepG2 cells assessed as cell viability at 50 uM incubated for 72 hrs by PrestoBlue cell viability reagent based assay; details: hepg2, 72 h
# [25] = Plasma concentration in NIH mouse infected with Plasmodium chabaudi ASS at 30 mg/kg, po qd for 4 days starting from 4 hrs post-parasite inoculation and measured at 1 hr post-dosing on day 4 by LC/MS analysis; assay type: ADME, organism-based; details: dose 30 mg/kg/day, time 4 day
# [26] = target: Cytochrome P450 2C9 (Homo sapiens, UniProt P11712); test: Inhibition of recombinant human CYP2C9 expressed in baculovirus infected insect cells using tolbutamide as substrate incubated for 30 mins in presence of NADPH-regenerating system by fluorescence based assay; assay type: ADME
# Sequence of Cytochrome P450 2C9 (P11712 whole entry): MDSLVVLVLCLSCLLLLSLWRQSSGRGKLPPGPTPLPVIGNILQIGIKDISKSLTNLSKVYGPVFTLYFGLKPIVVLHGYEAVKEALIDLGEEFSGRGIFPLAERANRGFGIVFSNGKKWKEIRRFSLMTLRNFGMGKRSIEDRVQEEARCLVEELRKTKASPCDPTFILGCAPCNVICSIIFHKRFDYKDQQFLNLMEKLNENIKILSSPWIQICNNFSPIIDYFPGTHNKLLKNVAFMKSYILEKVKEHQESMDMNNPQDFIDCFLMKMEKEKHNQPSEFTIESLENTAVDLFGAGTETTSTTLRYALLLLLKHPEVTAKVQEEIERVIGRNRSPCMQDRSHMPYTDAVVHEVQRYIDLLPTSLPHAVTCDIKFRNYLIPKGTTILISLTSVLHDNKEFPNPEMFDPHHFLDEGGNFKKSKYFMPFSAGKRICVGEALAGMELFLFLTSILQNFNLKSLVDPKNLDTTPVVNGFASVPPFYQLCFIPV
# [27] = target: Cytochrome P450 2D6 (Homo sapiens, UniProt P10635); test: Inhibition of recombinant human CYP2D6 expressed in baculovirus infected insect cells using dextromethorphan as substrate incubated for 30 mins in presence of NADPH-regenerating system by fluorescence based assay; assay type: ADME
# Sequence of Cytochrome P450 2D6 (P10635 whole entry): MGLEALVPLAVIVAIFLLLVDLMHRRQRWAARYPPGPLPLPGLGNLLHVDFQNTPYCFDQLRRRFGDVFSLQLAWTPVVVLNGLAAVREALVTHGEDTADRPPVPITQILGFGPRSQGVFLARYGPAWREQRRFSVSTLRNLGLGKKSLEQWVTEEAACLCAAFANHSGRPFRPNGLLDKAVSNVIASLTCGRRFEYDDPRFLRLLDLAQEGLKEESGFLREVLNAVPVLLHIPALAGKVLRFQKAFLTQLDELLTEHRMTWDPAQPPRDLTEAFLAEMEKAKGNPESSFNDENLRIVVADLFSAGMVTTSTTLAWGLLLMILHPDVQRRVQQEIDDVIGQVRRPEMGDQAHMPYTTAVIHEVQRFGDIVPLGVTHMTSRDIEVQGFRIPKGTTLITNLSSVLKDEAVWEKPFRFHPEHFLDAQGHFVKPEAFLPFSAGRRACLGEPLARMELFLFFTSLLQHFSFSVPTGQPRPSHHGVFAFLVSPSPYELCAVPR
# [28] = Plasma concentration in NIH mouse infected with Plasmodium chabaudi ASS at 10 mg/kg, po qd for 4 days starting from 4 hrs post-parasite inoculation and measured at 24 hrs post-dosing on day 4 by LC/MS analysis; assay type: ADME, organism-based; details: dose 10 mg/kg/day, time 4 day
structure (smiles),measurement,setting,value
CN(C)c1ccc(CC(=O)N[C@@H]2CNC[C@H]2c2ccc(C(C)(F)F)cc2)cc1,IC50,[1],2.5 µM
same,inhibition in vivo at 3 mg/kg/day,[2],34%
same,clearance,[3],13.8 mL/min/kg
same,ED90,[4],< 10 mg/kg/day
same,ED99,[4],30 mg/kg/day
same,IC50,[5],0.053 µM
same,concentration at 96 h,[6],114 nM
same,Activity,[7],Non-Toxic
same,concentration at 96 h,[8],389 nM
same,concentration at 96 h,[9],1150 nM
same,Vd,[10],2.1 L/kg
same,concentration at 96 h,[11],6.6 nM
same,inhibition,[12],inactive
same,IC50,[13],0.051 µM
same,half-life,[14],2.7 h
same,inhibition in vivo at 10 mg/kg/day,[15],94.1%
same,inhibition in vivo at 30 mg/kg/day,[16],99.9%
same,inhibition,[17],inactive
same,concentration at 96 h,[18],34.1 nM
same,concentration at 96 h,[19],28.5 nM
same,inhibition,[20],inactive
same,IC50,[21],49.7 µM
same,concentration at 96 h,[22],48.9 nM
same,IC50,[23],> 100 µM
same,Activity,[24],Non-Toxic
same,concentration at 96 h,[25],1310 nM
same,IC50,[26],> 100 µM
same,IC50,[27],40.6 µM
same,concentration at 96 h,[28],1.7 nM
